Among the data in patent US10351578B2, “Heterocyclic-substituted pyridinopyrimidinone derivative as CDK inhibitor and use thereof” (Shanghai Xunhe Pharmaceutical Technology Co. Ltd., priority 2016, dated 2019) are IC50 values, retold here.

Test [1] addresses T1, CDK6 protein kinase (GST-CDK6(1-326 end)) (Homo sapiens, UniProt Q00534).
T1 construct: GST-CDK6(1-326 end); GST (N)
Briefly: CDK6 protein kinase activity, Caliper mobility shift assay. In kind it is biochemical. As to conditions: substrate Peptide FAM-P8, 28° C. for 3 h. How it is done: (§1) Activity Assay: The CDK6 protein kinase activity was measured using the Caliper mobility shift assay (see J. Biomol. Screen, 2009, PP31). The test compound was dissolved in DMSO and diluted with a kinase buffer solution (20 mM HEPES-pH 7.5, 0.01% Triton X-100, 10 mM MgCl2, 2 mM DTT) and 5 μL of the compound at 5-fold final concentration of reaction dissolved in 10% DMSO was added in a 384-well plate. The compound-free control well was 5 μL of 10% DMSO, and the no-activity control well was 5 μL of kinase buffer. 10 μL of a 2.5-fold diluted CDK6 enzyme solution (GST-CDK6(1-326 end)) was added and incubated at room temperature for 10 min, and then 10 μL of the 2.5-fold diluted substrate solution Peptide FAM-P8 was added. The reaction was stopped by adding 25 μL of stop solution after incubation at 28° C. for 3 h, and the conversion rate data was read on a Caliper EZ Reader II (Caliper Life Sciences) and the conversion rate was converted to inhibition rate data according to above method. Among them, the inhibition rate %=(max−conversion)/(max−min)×100%.

The target in test [2] is T2, CDK4 protein kinase (GST-CDK4(1-303 end)) (Homo sapiens, UniProt P11802).
T2 construct: GST-CDK4(1-303 end); GST (N)
T2 sequence (P11802 whole entry): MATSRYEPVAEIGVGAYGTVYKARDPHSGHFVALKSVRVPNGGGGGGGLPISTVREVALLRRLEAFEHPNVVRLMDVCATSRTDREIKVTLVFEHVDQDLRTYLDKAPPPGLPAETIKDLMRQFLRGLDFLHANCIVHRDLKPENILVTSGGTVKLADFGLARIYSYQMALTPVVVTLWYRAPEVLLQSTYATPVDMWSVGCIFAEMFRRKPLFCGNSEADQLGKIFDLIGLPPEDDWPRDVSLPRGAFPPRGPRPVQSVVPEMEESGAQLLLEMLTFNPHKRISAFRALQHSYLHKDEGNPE
T2 sequence (P30281 whole entry partner): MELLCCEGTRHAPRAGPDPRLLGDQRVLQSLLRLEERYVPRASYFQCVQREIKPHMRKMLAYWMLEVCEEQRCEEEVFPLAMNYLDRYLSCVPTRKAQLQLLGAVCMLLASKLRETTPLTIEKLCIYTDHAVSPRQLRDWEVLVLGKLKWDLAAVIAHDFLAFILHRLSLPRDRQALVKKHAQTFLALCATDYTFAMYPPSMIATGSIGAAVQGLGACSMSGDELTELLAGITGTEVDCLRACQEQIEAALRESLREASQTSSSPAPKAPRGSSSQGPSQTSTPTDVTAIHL
Briefly: CDK4 protein kinase activity, Caliper mobility shift assay. In kind it is biochemical. As to conditions: substrate Peptide FAM-P8, 28° C. for 3 h. As to the method:
as §1, with “CDK4” for “CDK6”, “(GST-CDK4(1-303” for “(GST-CDK6(1-326”

T1 sequence (Q00534 whole entry): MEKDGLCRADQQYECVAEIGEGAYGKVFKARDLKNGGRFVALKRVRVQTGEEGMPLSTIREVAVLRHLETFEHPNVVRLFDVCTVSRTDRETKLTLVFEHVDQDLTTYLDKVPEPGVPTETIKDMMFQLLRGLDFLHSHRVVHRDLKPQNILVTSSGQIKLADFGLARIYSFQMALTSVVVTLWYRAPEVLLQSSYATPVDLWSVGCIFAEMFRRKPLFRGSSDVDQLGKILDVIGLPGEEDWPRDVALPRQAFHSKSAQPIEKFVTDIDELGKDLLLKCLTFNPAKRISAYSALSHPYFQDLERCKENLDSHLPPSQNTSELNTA
T1 sequence (P30281 whole entry partner): as the sequence (P30281 whole entry partner) above

For orientation: IC50 means the concentration needed to halve the response being measured. With `CC(C)N1CCN(c2ccc(Nc3ncc4c(n3)N(C3CCCC3)C(=O)C(C)(C)S4)nc2)CC1` [Compound I-24, 6,6-dimethyl-8-cyclopentyl-2-(5-(4-isopropyl-1-piperazinyl)-pyridin-2-amino)-6H-pyrimido[5,4-b][1,4]thiazin-7(8H)-one], the IC50 in test [1] and in test [2] was at most 20 nM in each case.
For `CCN1CCN(Cc2ccc(Nc3ncc4c(n3)N(C3CCCC3)C(=O)C(C(C)=O)O4)nc2)CC1` (stereo not shown) [Compound I-26, 6-acetyl-8-cyclopentyl-2-(5-(4-ethyl-1-piperazinyl)methyl-pyridin-2-amino)-6H-pyrimido[5,4-b][1,4]oxazin-7(8H)-one], the IC50 was 100 to 500 nM in test [1] and at most 20 nM in test [2].
On the same counts, the results for `CCN1CCN(Cc2ccc(Nc3ncc4c(n3)N(C3CCCC3)C(=O)C(C#N)O4)nc2)CC1` (stereo not shown) [Compound I-27, 6-cyano-8-cyclopentyl-2-(5-(4-ethyl-1-piperazinyl)methyl-pyridin-2-amino)-6H-pyrimido[5,4-b][1,4]oxazin-7(8H)-one] are at most 20 nM and at most 20 nM.
The corresponding values for `CCN1CCN(Cc2ccc(Nc3ncc4c(n3)N(C3CCCC3)C(=O)C3(CCC3)O4)nc2)CC1` [Compound I-28] are 20 to 100 nM and at most 20 nM.
On the same counts, the results for `CC1(C)Oc2cnc(Nc3ccc(N4CCNCC4)cn3)nc2N(c2cccs2)C1=O` [Compound I-29, 6,6-dimethyl-8-(2-thienyl)-2-(5-(1-piperazinyl)-pyridin-2-amino)-6H-pyrimido[5,4-b][1,4]oxazin-7(8H)-one] are at most 20 nM and at most 20 nM.
As to `CCN1CCN(Cc2ccc(Nc3ncc4c(n3)N(c3ccccn3)C(=O)C(C)(C)O4)nc2)CC1` [Compound I-30, 6,6-dimethyl-8-(2-pyridyl)-2-(5-(4-ethyl-1-piperazinyl)methyl-pyridine-2-amino)-6H-pyrimido[5,4-b][1,4]oxazin-7(8H)-one], the IC50 in test [1] was 20 to 100 nM; in test [2], at most 20 nM.
On the same counts, the results for `CCN1CCN(Cc2ccc(Nc3ncc4c(n3)N(c3ncccn3)C(=O)C(C)(C)O4)nc2)CC1` [Compound I-31, 6,6-dimethyl-8-(2-pyrimidinyl)-2-(5-(4-ethyl-1-piperazinyl)methyl-pyridine-2-amino)-6H-pyrimido[5,4-b][1,4]oxazin-7(8H)-one] are at most 20 nM and at most 20 nM.
On the same counts, the results for `CC1(C)Oc2cnc(Nc3ccc(N4CCNCC4)cn3)nc2N(c2ccco2)C1=O` [Compound I-32] are over 500 nM and at most 20 nM.
The corresponding values for `CN(C)C(=O)C1Oc2cnc(Nc3ccc(N4CCNCC4)cn3)nc2N(C2CCCC2)C1=O` (stereo not shown) [Compound I-33, N,N-dimethyl-6-carboxamide-8-cyclopentyl-2-(5-(1-piperazinyl)-pyridin-2-amino)-6H-pyrimido[5,4-b][1,4]oxazin-7(8H)-one] are at most 20 nM and at most 20 nM.
Turning to `NC(=O)C1Oc2cnc(Nc3ccc(N4CCNCC4)cn3)nc2N(C2CCCC2)C1=O` (stereo not shown) [Compound I-34, 6-carboxamide-8-cyclopentyl-2-(5-(1-piperazinyl)-pyridin-2-amino)-6H-pyrimido[5,4-b][1,4]oxazin-7(8H)-one], the IC50 in test [1] and in test [2] was at most 20 nM each time.
As for `CC1(C)Oc2cnc(Nc3ccc(N4CCNCC4)cn3)nc2N(c2ccccc2)C1=O` [Compound I-35, 6,6-dimethyl-8-phenyl-2-(5-(1-piperazinyl)-pyridin-2-amino)-6H-pyrimido[5,4-b][1,4]oxazin-7(8H)-one], the IC50 in test [1] and in test [2] was 20 to 100 nM throughout.
Consider `CC1(C)Oc2cnc(Nc3ccc(N4CCNCC4)cn3)nc2N(c2ccc(Cl)cc2)C1=O` [Compound I-36, 6,6-dimethyl-8-(4-chlorophenyl)-2-(5-(1-piperazinyl)-pyridin-2-amino)-6H-pyrimido[5,4-b][1,4]oxazin-7(8H)-one], for which the concentration for half-maximal inhibition (IC50) in test [1] and in test [2] was at most 20 nM throughout.
For `CCC(CC)N1C(=O)C(C)(C)Oc2cnc(Nc3ccc(N4CCNCC4)cn3)nc21` [Compound I-37, 6,6-dimethyl-8-(3-pentyl)-2-(5-(1-piperazinyl)-pyridin-2-amino)-6H-pyrimido[5,4-b][1,4]oxazin-7(8H)-one], the IC50 in test [1] is 20 to 100 nM; in test [2] it was at most 20 nM.
`CCC(CC)N1C(=O)C(C)(C)Oc2cnc(Nc3ccc(CN4CCN(CC)CC4)cn3)nc21` [Compound I-38, 6,6-dimethyl-8-(3-pentyl)-2-(5-(4-ethyl-1-piperazinyl)methyl-pyridine-2-amino)-6H-pyrimido[5,4-b][1,4]oxazin-7(8H)-one]: the IC50 was 20 to 100 nM in test [1] and at most 20 nM in test [2].
